The values below come from patent US8975406B2, “Compound useful for the treatment of degenerative and inflammatory diseases” (Galapagos N.V., priority 2011, dated 2015).

Where only a bound is given, the exact number is not on record here.

The target of experiment [1] is T1, Recombinant human JAK3 catalytic domain (Homo sapiens, UniProt P52333).
T1 construct: catalytic domain (amino acids 795-1124; catalog number 08-046); purchased Carna Biosciences 08-046
Description: JAK3 inhibition assay. Conditions: polyGT substrate, 33P-gamma-ATP filter assay, 1 μM ATP. The class given is biochemical. On the procedure: Recombinant human JAK3 catalytic domain (amino acids 795-1124; catalog number 08-046) was purchased from Carna Biosciences. 0.5 ng JAK3 protein was incubated with 2.5 μg polyGT substrate (Sigma catalog number P0275) in kinase reaction buffer (25 mM Tris pH 7.5, 0.5 mM EGTA, 10 mM MgCl2, 2.5 mM DTT, 0.5 mM Na3VO4, 5 mM b-glycerolphosphate, 0.01% Triton X-100, 1 μM non-radioactive ATP, 0.25 μCi ^33P-gamma-ATP (Perkin Elmer, catalog number NEG602K001MC) final concentrations) with or without 5 μL containing test compound or vehicle (DMSO, 1% final concentration), in a total volume of 25 μL, in a polypropylene 96-well plate (Greiner, V-bottom). After 45 min at 30° C., reactions were stopped by adding 25 μL/well of 150 mM phosphoric acid. All of the terminated kinase reaction was transferred to prewashed (75 mM phosphoric acid) 96 well filter plates (Perkin Elmer catalog number 6005177) using a cell harvester (Perkin Elmer). Plates were washed 6 times with 300 μL per well of a 75 mM phosphoric acid solution and the bottom of the plates was sealed. 40 μL/well of Microscint-20 was added, the top of the plates was sealed and readout was performed using the Topcount (Perkin Elmer). Kinase activity was calculated by subtracting counts per min (cpm) obtained in the presence of a positive control inhibitor (10 μM staurosporine) from cpm obtained in the presence of vehicle. The ability of a test compound to inhibit this activity was determined as: Percentage inhibition=((cpm determined for sample with test compound present−cpm determined for sample with positive control inhibitor)divided by(cpm determined in the presence of vehicle−cpm determined for sample with positive control inhibitor))*100.
Dose dilution series were prepared for the compounds enabling the testing of dose-response effects in the JAK3 assay and the calculation of the IC50 for each compound. Each compound was routinely tested at concentration of 20 μM followed by a ⅕ serial dilution, 10 points in a final concentration of 1% DMSO. When potency of compound series increased, more dilutions were prepared and/or the top concentration was lowered (e.g. 5 μM, 1 μM).

In experiment [2] the target is T2, Recombinant human JAK1 (Homo sapiens, UniProt P23458).
T2 construct: catalytic domain (amino acids 866-1154; catalog number PV4774); purchased Invitrogen PV4774
T2 sequence (P23458 866-1154): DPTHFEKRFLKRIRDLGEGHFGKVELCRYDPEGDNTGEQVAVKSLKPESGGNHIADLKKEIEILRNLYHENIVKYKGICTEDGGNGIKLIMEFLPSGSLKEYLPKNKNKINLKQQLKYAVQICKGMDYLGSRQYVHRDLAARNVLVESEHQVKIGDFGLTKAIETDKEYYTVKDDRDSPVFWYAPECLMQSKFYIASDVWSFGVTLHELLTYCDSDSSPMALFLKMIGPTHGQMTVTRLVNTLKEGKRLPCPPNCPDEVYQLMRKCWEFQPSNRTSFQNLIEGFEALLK
Description: JAK1 Ulight-JAK1 peptide assay. The class given is biochemical. The conditions noted are these: Ulight-JAK1(tyr1023) peptide, 7 μM ATP. On the procedure:
Recombinant human JAK1 (catalytic domain, amino acids 866-1154; catalog number PV4774) was purchased from Invitrogen. 1 ng of JAK1 was incubated with 20 nM Ulight-JAK1(tyr1023) peptide (Perkin Elmer catalog number TRF0121) in kinase reaction buffer (25 mM MOPS pH6.8, 0.01% Brij-35, 5 mM MgCl2, 2 mM DTT, 7 μM ATP) with or without 4 μL containing test compound or vehicle (DMSO, 1% final concentration), in a total volume of 20 μL, in a white 384 Opti plate (Perkin Elmer, catalog number 6007290). After 60 min at room temperature, reactions were stopped by adding 20 μL/well of detection mixture (1× detection buffer (Perkin Elmer, catalog number CR97-100C), 0.5 nM Europium-anti-phosphotyrosine (PT66) (Perkin Elmer, catalog number AD0068), 10 mM EDTA). Readout is performed using the Envision with excitation at 320 nm and measuring emission at 615 nm (Perkin Elmer). Kinase activity was calculated by subtracting relative fluorescence units (RFU) obtained in the presence of a positive control inhibitor (10 μM staurosporine) from RFU obtained in the presence of vehicle. The ability of a test compound to inhibit this activity was determined as: Percentage inhibition=((RFU determined for sample with test compound present−RFU determined for sample with positive control inhibitor)divided by(RFU determined in the presence of vehicle−RFU determined for sample with positive control inhibitor))*100.
Dose dilution series were prepared for the compounds enabling the testing of dose-response effects in the JAK1 assay and the calculation of the IC50 for the compound. Each compound is routinely tested at concentration of 20 μM followed by a ⅕ serial dilution, 10 points in a final concentration of 1% DMSO. When potency of compound series increases, more dilutions are prepared and/or the top concentration are lowered (e.g. 5 μM, 1 μM). The data are expressed as the average IC50 from the assays±standard error of the mean.

T1 sequence (P52333 795-1124): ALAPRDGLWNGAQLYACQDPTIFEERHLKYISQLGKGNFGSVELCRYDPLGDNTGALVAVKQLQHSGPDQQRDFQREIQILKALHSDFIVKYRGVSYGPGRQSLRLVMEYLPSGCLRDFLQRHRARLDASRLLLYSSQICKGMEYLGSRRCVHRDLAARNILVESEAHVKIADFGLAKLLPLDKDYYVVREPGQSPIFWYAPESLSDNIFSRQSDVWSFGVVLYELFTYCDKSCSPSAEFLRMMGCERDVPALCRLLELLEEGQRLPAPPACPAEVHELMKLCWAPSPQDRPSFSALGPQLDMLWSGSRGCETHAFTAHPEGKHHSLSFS

As to `CS(=O)(=O)N1CCN(Cc2ccc(-c3cccn4nc(NC(=O)C5CC5)cc34)cc2)CC1` [Compound 15, N-(4-(4-((4-(methylsulfonyl)piperazin-1-yl)methyl)phenyl)pyrazolo[1,5-a]pyridin-2-yl)cyclopropanecarboxamide], the IC50 in experiment [1] and in experiment [2] was 0.01 to 100 nM each time.
Regarding `O=C(Nc1nn2cccc(-c3ccc(CN4CCS(=O)(=O)CC4)cc3)c2c1Cl)C1CC1` [Compound 13, Cyclopropanecarboxylic acid {4-[4-(1,1-dioxo-thiomorpholin-4-ylmethyl)-phenyl]-3-chloro-pyrazolo[1,5-a]pyridin-2-yl}-amide], the IC50 in experiment [1] was 101 to 500 nM; in experiment [2] it was 0.01 to 100 nM.
For the compound `O=C(Nc1cc2c(-c3ccc(C(=O)N4CCCCC4)cc3)cccn2n1)C1CC1` [Compound 14, Cyclopropanecarboxylic acid {4-[4-(piperidine-1-carbonyl)-phenyl]-pyrazolo[1,5-a]pyridin-2-yl}-amide], the IC50 in experiment [1] was 101 to 500 nM; in experiment [2], 0.01 to 100 nM.
As to `CS(=O)(=O)C1CCN(Cc2ccc(-c3cccn4nc(NC(=O)C5CC5)cc34)cc2F)CC1` [Compound 18, N-(4-(3-fluoro-4-((4-(methylsulfonyl)piperidin-1-yl)methyl)phenyl)pyrazolo[1,5-a]pyridin-2-yl)cyclopropanecarboxamide], the IC50 in experiment [1] is 101 to 500 nM; in experiment [2], 0.01 to 100 nM.
Regarding `CS(=O)(=O)N1CCN(Cc2ccc(-c3cccn4nc(NC(=O)C5CC5)cc34)cn2)CC1` [Compound 23, N-(4-(6-((4-(methylsulfonyl)piperazin-1-yl)methyl)pyridin-3-yl)pyrazolo[1,5-a]pyridin-2-yl)cyclopropanecarboxamide], the results for the IC50 in experiment [1] and in experiment [2] were 101 to 500 nM and 0.01 to 100 nM, respectively.
In the same order, the values of `O=C(Nc1cc2c(-c3ccc(CN4CCCCC45COC5)cc3)cccn2n1)C1CC1` [Compound 48, N-(4-(4-(2-oxa-5-azaspiro[3.5]nonan-5-ylmethyl)phenyl)pyrazolo[1,5-a]pyridin-2-yl)cyclopropanecarboxamide] are 0.01 to 100 nM and 0.01 to 100 nM.
As for `O=C(Nc1cc2c(-c3ccc4[nH]ccc4c3)cccn2n1)C1CC1` [Compound 4, N-(4-(1H-indol-5-yl)pyrazolo[1,5-a]pyridin-2-yl)cyclopropanecarboxamide], the IC50 lay within 0.01 to 100 nM in experiment [1] and 101 to 500 nM in experiment [2].
Take `CC(=O)Nc1cc2c(-c3ccc(CC(=O)N4CCOCC4)cc3)cccn2n1` [Compound 36, N-(4-(4-(2-morpholino-2-oxoethyl)phenyl)pyrazolo[1,5-a]pyridin-2-yl)acetamide]: the IC50 in experiment [1] and in experiment [2] was 101 to 500 nM in each case.
Turning to `CC(=O)Nc1cc2c(-c3cnc(CN4CCN(S(C)(=O)=O)CC4)c(F)c3)cccn2n1` [Compound 26, N-(4-(5-fluoro-6-((4-(methylsulfonyl)piperazin-1-yl)methyl)pyridin-3-yl)pyrazolo[1,5-a]pyridin-2-yl)acetamide], the values for the IC50 in experiment [1] and in experiment [2] were above 1000 nM and 101 to 500 nM, respectively.
`O=C(Nc1cc2c(-c3ccc(CN4CCS(=O)(=O)CC4)cc3)cccn2n1)C1CC1` [Compound 10, Cyclopropanecarboxylic acid {4-[4-(1,1-dioxo-thiomorpholin-4-ylmethyl)-phenyl]-pyrazolo[1,5-a]pyridin-2-yl}-amide]: the concentration for half-maximal inhibition (IC50) in experiment [1] and in experiment [2] was 0.01 to 100 nM throughout.
Take `O=C(Nc1cc2c(-c3ccc4c(ccn4Cc4ccccc4)c3)cccn2n1)C1CC1` [Compound 3, N-(4-(1-benzyl-1H-indol-5-yl)pyrazolo[1,5-a]pyridin-2-yl)cyclopropanecarboxamide]: the IC50 in experiment [1] is 0.01 to 100 nM; in experiment [2], above 1000 nM.
In the same order, the values of `O=C(NCCc1ccccc1)c1ccc(-c2cccn3nc(NC(=O)C4CC4)cc23)cc1` [Compound 5, 4-(2-(cyclopropanecarboxamido)pyrazolo[1,5-a]pyridin-4-yl)-N-phenethylbenzamide] are above 1000 nM and 0.01 to 100 nM.
Regarding `CC(=O)Nc1cc2c(-c3ccc(CC(=O)N4CCCCC4)cc3)cccn2n1` [Compound 35, N-(4-(4-(2-oxo-2-(piperidin-1-yl)ethyl)phenyl)pyrazolo[1,5-a]pyridin-2-yl)acetamide], the IC50 in experiment [1] lay in the range of 0.01 to 100 nM; in experiment [2], 101 to 500 nM.
In the same order, the values of `CS(=O)(=O)C1CCN(Cc2ccc(-c3cccn4nc(NC(=O)C5CC5)c(Cl)c34)cc2F)CC1` [Compound 20, N-(3-chloro-4-(3-fluoro-4-((4-(methylsulfonyl)piperidin-1-yl)methyl)phenyl)pyrazolo[1,5-a]pyridin-2-yl)cyclopropanecarboxamide] are 501 to 1000 nM and 0.01 to 100 nM.
`O=C(Nc1nn2cccc(-c3ccc(CN4CCS(=O)(=O)CC4)cc3)c2c1F)C1CC1` [Compound 11, Cyclopropanecarboxylic acid {4-[4-(1,1-dioxo-thiomorpholin-4-ylmethyl)-phenyl]-3-fluoro-pyrazolo[1,5-a]pyridin-2-yl}-amide]: the IC50 in experiment [1] and in experiment [2] was 0.01 to 100 nM throughout.
Regarding `CC(=O)Nc1cc2c(-c3ccc(CN4CCS(=O)(=O)CC4)c(F)c3)cccn2n1` [Compound 27, N-{4-[4-(1,1-Dioxo-thiomorpholin-4-ylmethyl)-3-fluoro-phenyl]-pyrazolo[1,5-a]pyridin-2-yl}-acetamide], the IC50 in experiment [1] and in experiment [2] was 0.01 to 100 nM each time.

The term IC50 denotes the concentration that inhibits the measured activity by half.
